Test results published in paper PMC12298351, “Novel 3,19-(N-Phenyl-3-(4-fluorophenyl)-pyrazole) Acetal of Andrographolide Promotes Cell Cycle Arrest and Apoptosis in MDA-MB-231 Breast Cancer Cells” (Pharmaceuticals, 2025).

What was measured:
[1] = tested on: TK-10; assay type: cell-based; conditions: TK-10, Renal
[2] = tested on: SR
[3] = tested on: NCI-H460
[4] = tested on: HCC-2998; conditions: HCC-2998, Colon
[5] = tested on: SF-268; conditions: SF-268, CNS
[6] = tested on: T-47D
[7] = tested on: MOLT-4; conditions: MOLT-4, Leukemia
[8] = tested on: SK-MEL-28; conditions: SK-MEL-28, Melanoma
[9] = tested on: NCI-H522
[10] = tested on: CAKI-1; conditions: CAKI-1, Renal
[11] = tested on: EKVX
[12] = tested on: HOP-62
[13] = tested on: A498; conditions: A498, Renal
[14] = tested on: SNB-75; conditions: SNB-75, CNS
[15] = tested on: HCT-116; assay type: cell-based; conditions: HCT-116, Colon
[16] = tested on: LOX IMVI
[17] = tested on: PC-3; conditions: PC-3, Prostate
[18] = tested on: ACHN
[19] = tested on: MDA-MB-468; conditions: MDA-MB-468, Breast
[20] = tested on: HOP-92
[21] = tested on: SF-539; conditions: SF-539, CNS
[22] = tested on: HCT-15; conditions: HCT-15, Colon
[23] = tested on: U251; conditions: U251, CNS
[24] = tested on: MALME-3M; conditions: Melanoma
[25] = tested on: OVCAR-3; conditions: OVCAR-3, Ovarian
[26] = tested on: HS 578T
[27] = tested on: UACC-257; conditions: UACC-257, Melanoma
[28] = tested on: MDA-MB-231
[29] = tested on: IGROV1; conditions: IGROV1, Ovarian
[30] = tested on: HL-60(TB)
[31] = tested on: KM12; conditions: KM12, Colon
[32] = read-out: 50% lethal concentration (LC50)
[33] = read-out: 50% lethal concentration (LC50), Leukemia
[34] = read-out: 50% lethal concentration (LC50), Breast

C=C1CCC2C3(C)COC(c4cn(-c5ccccc5)nc4-c4cccc(Br)c4)OC3CCC2(C)C1CC=C1C(=O)OCC1O (stereo not drawn) [1e]
GI50 [1]: 2.12 µM
Total growth inhibition (TGI) [1]: 3.58 µM
CC50 [1, 32]: 40.4 µM
GI50 ([2]; Leukemia): 1.77 µM
CC50 [2, 33]: > 100 µM
Total growth inhibition (TGI) ([3]; NCI-H460, Non-Small Cell Lung): 3.49 µM
GI50 ([3]; NCI-H460, Non-Small-Cell Lung): 1.78 µM
CC50 ([3]; read-out: 50% lethal concentration (LC50), NCI-H460, Non-Small Cell Lung): 6.83 µM
GI50 [4]: 1.72 µM
Total growth inhibition (TGI) [4]: 3.33 µM
GI50 [5]: 2.02 µM
Total growth inhibition (TGI) [5]: 4.26 µM
CC50 [5, 32]: 8.98 µM
GI50 ([6]; Breast): 2.29 µM
Total growth inhibition (TGI) ([6]; Breast): 7.26 µM
CC50 [6, 34]: > 100 µM
GI50 [7]: 0.91 µM
Total growth inhibition (TGI) [7]: 4.24 µM
CC50 [7, 32]: > 100 µM
GI50 [8]: 1.73 µM
Total growth inhibition (TGI) [8]: 3.28 µM
CC50 [8, 32]: 6.2 µM
Total growth inhibition (TGI) ([9]; NCI-H522, Non-Small Cell Lung): 2.9 µM
GI50 ([9]; NCI-H522, Non-Small-Cell Lung): 1.5 µM
CC50 ([9]; read-out: 50% lethal concentration (LC50), NCI-H522, Non-Small Cell Lung): 5.62 µM
GI50 [10]: 1.42 µM
Total growth inhibition (TGI) [10]: 2.98 µM
CC50 [10, 32]: 6.04 µM
Total growth inhibition (TGI) ([11]; Non-Small Cell Lung): 5.16 µM
GI50 ([11]; Non-Small-Cell Lung): 2.1 µM
CC50 ([11]; read-out: 50% lethal concentration (LC50), Non-Small Cell Lung): > 100 µM
Total growth inhibition (TGI) ([12]; HOP-62, Non-Small Cell Lung): 4.94 µM
GI50 ([12]; HOP-62, Non-Small-Cell Lung): 2.08 µM
CC50 ([12]; read-out: 50% lethal concentration (LC50), HOP-62, Non-Small Cell Lung): > 100 µM
GI50 [13]: 4.33 µM
Total growth inhibition (TGI) [13]: 8.1 µM
CC50 [13, 32]: 44 µM
GI50 [14]: 1.57 µM
Total growth inhibition (TGI) [14]: 5.32 µM
CC50 [14, 32]: 22.9 µM
GI50 [15]: 1.24 µM
Total growth inhibition (TGI) [15]: 2.75 µM
GI50 ([16]; Melanoma): 1.64 µM
Total growth inhibition (TGI) ([16]; Melanoma): 3.03 µM
CC50 ([16]; read-out: 50% lethal concentration (LC50), Melanoma): 5.59 µM
GI50 [17]: 2.29 µM
CC50 [17, 32]: > 100 µM
GI50 ([18]; Renal): 1.61 µM
Total growth inhibition (TGI) ([18]; Renal): 16.8 µM
CC50 ([18]; read-out: 50% lethal concentration (LC50), Renal): 5.51 µM
GI50 [19]: 1.82 µM
Total growth inhibition (TGI) [19]: 3.41 µM
CC50 [19, 32]: 6.37 µM
Total growth inhibition (TGI) ([20]; HOP-92, Non-Small Cell Lung): 3.41 µM
GI50 ([20]; HOP-92, Non-Small-Cell Lung): 1.75 µM
GI50 [21]: 1.78 µM
Total growth inhibition (TGI) [21]: 3.2 µM
CC50 [21, 32]: 5.74 µM
GI50 [22]: 1.6 µM
Total growth inhibition (TGI) [22]: 3.55 µM
CC50 [22, 32]: 7.85 µM
GI50 [23]: 1.69 µM
Total growth inhibition (TGI) [23]: 3.13 µM
GI50 [24]: 1.87 µM
Total growth inhibition (TGI) [24]: 3.45 µM
GI50 [25]: 1.69 µM
Total growth inhibition (TGI) [25]: 3.21 µM
CC50 [25, 32]: 6.08 µM
GI50 ([26]; Breast): 1.94 µM
Total growth inhibition (TGI) ([26]; Breast): 5.19 µM
CC50 [26, 34]: > 100 µM
GI50 [27]: 1.77 µM
Total growth inhibition (TGI) [27]: 3.45 µM
GI50 ([28]; MDA-MB-231, Breast): 1.68 µM
Total growth inhibition (TGI) ([28]; MDA-MB-231/ATCC, Breast): 3.23 µM
CC50 ([28]; read-out: 50% lethal concentration (LC50), MDA-MB-231/ATCC, Breast): 6.23 µM
GI50 [29]: 2.2 µM
Total growth inhibition (TGI) [29]: 4.83 µM
CC50 [29, 32]: > 100 µM
GI50 ([30]; Leukemia): 1.17 µM
Total growth inhibition (TGI) ([30]; Leukemia): 5.17 µM
CC50 [30, 33]: > 100 µM
GI50 [31]: 1.83 µM
Total growth inhibition (TGI) [31]: 3.58 µM
